Test results taken from patent US6670183B2, “88kDa tumorigenic growth factor and antagonists” (A & G Pharmaceutical, Inc., priority 1997, dated 2003).

Columns and labels:
[1] = tested on: GP88; experiment: regulation of GP88 expression in 1246, 1246-3A and PC cells, Northern and Western blot; format: cell-based, mouse; settings: 1246 cells
Description: Fifteen or twenty micrograms of total RNA per sample were subjected to electrophoresis on a denaturing 1.2% agarose gel containing 0.22 M formaldehyde in 1×MOPS (10×MOPS: 0.2 M MOPS, 50 mM NaOAc 10 mM EDTA). RNA was blotted on nitrocellulose membrane (MSI Inc., Westboro, Mass.) by overnight capillary transfer in 10×SSC (20×SSC=3 M NaCl, 0.3 M Na Citrate pH 7.0). […] Results were quantitated by densitometric scanning. Ribosomal protein L32 mRNA was detected as internal standard for normalizing RNA loading.
Amounts of cell lysate and culture medium to be analyzed were normalized by cell number of 18×10^5 and 3×10^5 respectively. […] Proteins were electro transferred to immobilon membranes and GP88 detected using anti K19T antibody conjugated to horseradish peroxidase and detected by enhanced chemiluminescence (ECL).
GP88 expression was examined in 1246 cells in different culture conditions such as defined medium and serum containing medium. It was shown that the level of expression of GP88 mRNA (measured by Northern blot analysis) and protein (measured by Western blot analysis) in 1246 and in 1246-3A cells is inhibited when the cells are treated with 2% fetal bovine serum indicating the presence of circulating inhibitors of GP88 expression in fetal bovine serum (FIG. 1C). […]

[2] = tested on: GP88 mRNA; experiment: regulation of GP88 mRNA expression in MDA MB-453 cells; format: cell-based, human

Row | Substance | GP88 mRNA expression [1] | GP88 mRNA expression [2]
1 | EGF: epidermal growth factor | stimulated | 
2 | insulin: hormone |  | stimulated
